According to US7625887B2, “Receptor agonists” (Takeda Pharmaceutical Company Limited, priority 2003, dated 2009):

How the values were obtained:
NCI-H716 cells [1] = assay: intracellular cAMP production increasing action in NCI-H716 cells; assay type: cell-based, human; conditions: bile acid 50 μM, 2 hrs; production amount in TLCA (50 μM) was 100%; Base 11
NCI-H716 cells [2] = assay: GLP-1 secretion from NCI-H716 cell line; assay type: cell-based, human; conditions: bile acid 25 μM, 2 hrs; secretion amount in Base was 100%
Experimental: NCI-H716 cells secrete Glucagon-like peptide-1 (GLP-1). GLP-1 is a peptide useful for controlling blood glucose level because it acts on the pancreas to cause secretion of insulin and the like. In the same manner as in Experimental Example 9, NCI-H716 (ATCC) was seeded in a 96 well plate and, after incubation for 2 days, used for the following secretion test. As a buffer for secretion test, modified Krebs-Ringer bicarbonate buffer (KRBH, 116 mM NaCl, 4.7 mM KCl, 1.2 mM KH2PO4, 1.2 mM MgSO4, 2.5 mM CaCl2, 25 mM NaHCO3, 24 mM HEPES, pH 7.3) supplemented with glucose 5.5 mM and BSA 0.1% was used. The cells were washed once with the buffer for secretion test, preincubated at 37° C. under 5% CO2, bile acid diluted with the buffer for secretion test was added and the cells were cultured at 37° C. under 5% CO2 for 2 hrs. The cell culture supernatant was collected, cryopreserved and the GLP-1 content in the supernatant was measured using a GLP-1 measurement EIA kit (Linco) The results are shown in Table 9. In the Table, Base means non-addition of a test compound.

[3] = tested on: guinea pig peripheral blood mononuclear cells; assay: TNF secretion in LPS-stimulated guinea pig peripheral blood mononuclear cells; assay type: cell-based; conditions: 16 hrs, bile acid 50 μM; non-addition: 160 with LPS, 13 without
Experimental: The peripheral blood was taken from guinea pig, and mononuclear cell fraction was obtained by a density separation method using Ficoll-Paque PLUS (Amersham Pharmacia). The fraction at a concentration of 1×10^5/well was cultured for 16 hrs in the presence of […] LPS in a 96-well plate upon addition of bile acid or a test compound. The culture supernatant was collected and TNF and IL-6 in the supernatant were quantitated.
The TNF secretion amount in the culture supernatant was measured in the same manner as in Experimental Example 7.

`C[C@H](CCC(=O)NCCS(=O)(=O)O)[C@H]1CC[C@H]2[C@@H]3CC[C@@H]4C[C@H](O)CC[C@]4(C)[C@H]3CC[C@]12C` [TLCA, taurolithocholic acid, reference compound] was tested, and the “cAMP production increasing activity (%)” value (NCI-H716 cells [1]) was 100%, the “GLP-1 secretion increase (%)” value (NCI-H716 cells [2]) was 124% and the “TNF α” value [3] was 60 pg/mL.
